The record followed here is US9149034B2, “Agrochemical formulations comprising co-polymers based on diisocyanates” (BASF SE, priority 2006, dated 2015).

The structures appear in SMILES notation.

For data set [1], the system named is Alteria, ALTESO P6 (Bayer). Briefly: Test with pathogenes: tomatoe plants in Hoagland solution with boscalid or boscalid/polymer, infested with fungus. It is filed as in vivo. As to conditions: for Infestation Rating: Table 3 experiment, untreated = 100%; for Rating (infestation): Table 4 experiment. An excerpt: To test the polymers with the actual pathogenes, tomatoe plants were directly grown in hoagland solution. Hoagland solution consists of the following ingredients 0.25 v % of 1M KNO3 solution in water, 0.1 v % of 1M MgSO4 solution in water, 0.05 v % of 1M KH2PO4 solution in water, 0.25 v % 1M Ca(NO3)2) solution in water, 0.05 v % of a trace solution consisting of 2.86 g/l H3BO3, 1.81 g/l MnCl2*4H2O, 0.22 g/l ZnSO4*7H2O, 0.08 g/l CuSO4*5H2O, 0.016 g/l MoO3 in water, 0.075 v % Sequestrene 138 Fe consisting of 30 g/l sodium ferric ethylenediamine di-(o-hydroxyphenylacetate) in water, 99.225 v % water sterilized and pH adjusted to 6-6.5 with NaOH.
After 16 days the plants were transfered to containers with 240 ml boscalid or boscalid/polymer (the ratio boscalid/polymer is 1:1 per weight) solutions (1.3, 0.43, 0.14 and 0.05 ppm) in Hoagland solution containing 0.8 vol % acetone. 6 days after the ai application the plants were infested with fungus (Alteria, ALTESO P6 (Bayer)). After 5 additional days the infestation was rated (column “Infestation Rating”) and plants that had not been treated with ai were used as reference for 100% infestation.
Two separate experiments were performed. In one test, polymers A and B were tested (see table 3), in the other experiment, polymers C and F were tested (see table 4).

The nature of data set [2]: Leaf uptake of radioactively marked boscalid applied dropwise to leaves of wheat plants. As to conditions: in vivo, 168 h. The procedure: To test the leaf uptake with polymers water/DMF solutions with radioactively marked boscalid (1 μl cold active solution (10000 ppm solution in DMF), 10 μl hot active solution (0.1 ppm in DMF, ˜2000000 counts/μl), 9 μl polymer solution (1000 ppm solution in water) and 80 μl DMF) were applied dropwise to the leaves of a wheat plants (10 drops per leap. After 48 and 168 hours respectively. The leaves were cut off after the respective time and the excess active on the leaf surface eliminated by stripping the leaf with a cellulose acetate film. The leaves were then dissolved with Soluene 350 to determine the absolute amount of active ingredient that was taken up into the plant. As reference the active was applied in water/DMF solution without polymer.

The nature of data set [3]: Root uptake test with radioactively marked boscalid, drench of wheat plants in vermiculite. As to conditions: in vivo, 120 h. The procedure: To test the root systemicity of the ai, radioactively marked boscalid (prepared in analogy to EP 0545099 based on ^14C marked pyridin) was used. For the tests wheat plants in vermiculite were drenched with boscalid/polymer solutions in water/acetone mixtures. As reference boscalid solutions in water/acetone mixtures without polymers were used [25 μl cold active solution (10000 ppm stock solution in acetone), 20 μl hot active solution (0.1 ppm in acetone, 1 μl corresponds to ˜22000 Bcq), 25 μl acetone and 25 μl polymer solution (10000 ppm stock solution in water) were mixed and refilled with water to 10 ml. After 48 and 120 hours leafs were cut from the plant and dissolved in Soluene 350 (60-80% toluene, 20-40% dodecyl(dimethyl)(tetradecyl)ammonium hydroxide, 2.5-10% methanol). Afterwards the radioactivity in the plant material was measured. High radioactivity in the plant material corresponds to high active ingredient uptake.

[4] abbreviates: 0.05 ppm active (or polymer/active 1:1).
Setting [5] is: 0.14 ppm active (or polymer/active 1:1).
Setting [6] is: 0.43 ppm active (or polymer/active 1:1).

Turning to `O=C(Nc1ccccc1-c1ccc(Cl)cc1)c1cccnc1Cl` [Reference without polymer, boscalid], the “Infestation Rating” value in data set [1] (setting [4]) turned out to be 77%; in data set [1] (setting [5]), 60%; in data set [1] (setting [6]), 13%; in data set [1] (1.3 ppm active (or polymer/active 1:1), rated 5 days after infestation) it was 1%. For the same molecule, the “Rating (infestation)” value worked out at 53% in data set [1] (setting [4]), 47% in data set [1] (setting [5]), 17% in data set [1] (setting [6]) and 0% in data set [1] (1.3 ppm active (or polymer/active 1:1)). The “Uptake [% applied]” value in data set [2] amounted to 1.3 % applied. In data set [3], the “Uptake (radioactivity in leaf material, active ingredient uptake)” value was found to be 219 Bcq.
